Test results taken from US20250122202A1, “EGFR INHIBITOR, PREPARATION METHOD THEREFOR AND USE THEREOF” (SHANDONG NEW TIME PHARMACEUTICAL CO., LTD., priority 2021, published 2025).
Read-outs that look alike come from different tables or passages of the source.

Experiments:
[1] = molecular target: EGFR D770-N771 ins NPG kinase (Homo sapiens (Human), UniProt P00533, INS770NPG); assay: In-vitro enzyme experiment 1 (HTRF kinase assay), D770-N771 ins NPG kinase; format: biochemical
[2] = system: KC-1362 BaF3-EGFR D770-N771 ins NPG cells; assay: Anti-proliferative activity on KC-1362 BaF3-EGFR D770-N771 ins NPG cells; format: cell-based; settings: Ba/F3 EGFR
[3] = molecular target: EGFR-Del19/T790M/C797S kinase (Homo sapiens, UniProt P00533, C797S/T790M, form not given); assay: In-vitro enzyme experiment 2 (HTRF kinase assay), EGFR Del19 T790M C797S; format: biochemical; settings: read-out: enzyme inhibition IC50 (nM) EGFR-Del19/T790M/C797S
Sequence of EGFR-Del19/T790M/C797S kinase (P00533 25-1210 T790M/C797S limits assumed, form open): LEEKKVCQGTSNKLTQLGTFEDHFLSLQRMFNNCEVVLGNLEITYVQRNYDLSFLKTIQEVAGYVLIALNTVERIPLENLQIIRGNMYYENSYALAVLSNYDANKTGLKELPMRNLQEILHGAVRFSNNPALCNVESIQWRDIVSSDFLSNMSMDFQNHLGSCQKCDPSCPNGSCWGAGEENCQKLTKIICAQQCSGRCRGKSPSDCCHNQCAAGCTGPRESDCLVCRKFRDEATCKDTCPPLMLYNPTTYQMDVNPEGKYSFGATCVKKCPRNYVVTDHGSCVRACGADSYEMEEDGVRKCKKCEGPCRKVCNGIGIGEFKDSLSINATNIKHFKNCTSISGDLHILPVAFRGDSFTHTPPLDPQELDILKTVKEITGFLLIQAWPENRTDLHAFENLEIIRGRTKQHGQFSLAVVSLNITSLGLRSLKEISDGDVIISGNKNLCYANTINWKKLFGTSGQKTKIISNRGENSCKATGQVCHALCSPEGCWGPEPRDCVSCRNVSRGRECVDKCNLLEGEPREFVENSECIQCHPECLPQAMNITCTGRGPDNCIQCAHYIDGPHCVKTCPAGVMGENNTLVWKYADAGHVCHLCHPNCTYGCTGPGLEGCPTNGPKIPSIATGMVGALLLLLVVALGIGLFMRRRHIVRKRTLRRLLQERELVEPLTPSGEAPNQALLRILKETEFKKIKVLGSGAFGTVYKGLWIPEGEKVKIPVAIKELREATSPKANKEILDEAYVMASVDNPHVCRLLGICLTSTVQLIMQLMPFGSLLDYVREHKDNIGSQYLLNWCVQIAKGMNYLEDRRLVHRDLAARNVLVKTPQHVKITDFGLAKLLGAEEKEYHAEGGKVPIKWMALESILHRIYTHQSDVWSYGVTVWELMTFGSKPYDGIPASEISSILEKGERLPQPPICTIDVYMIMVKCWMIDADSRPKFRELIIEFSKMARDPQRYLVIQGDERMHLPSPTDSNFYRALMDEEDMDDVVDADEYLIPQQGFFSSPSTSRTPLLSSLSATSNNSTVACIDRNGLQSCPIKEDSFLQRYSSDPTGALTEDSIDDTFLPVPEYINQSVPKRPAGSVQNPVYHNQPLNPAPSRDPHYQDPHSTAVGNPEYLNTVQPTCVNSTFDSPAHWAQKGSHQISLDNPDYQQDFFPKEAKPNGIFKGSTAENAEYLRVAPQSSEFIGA
Method: The specific experiment was as follows: • 1. […] Test method of activity of compound • a) a compound diluent was transferred to each well of an assay plate (784075, Greiner) using Echo 550; • b) the assay plate was sealed and centrifuged at 1,000 g for 1 min; • c) 2×EGFR (D770-N771 ins NPG T790M) was prepared in a 1× kinase buffer; • d) 5 μl of the 2×EGFR (D770-N771 ins NPG T790M) was added to a 384-well assay plate (784075, Greiner); • e) the assay plate was centrifuged at 1,000 g for 30 s and incubated at room temperature for 10 min; • f) 2× TK-substrate-biotin (2 μM) and ATP were added to the 1× kinase buffer and mixed; • g) the reaction was started after adding 5 μl of the TK-substrate-biotin (2 μM) and ATP mixture; • h) the assay plate was centrifuged at 1,000 g for 30 s; and the assay plate was sealed and incubated at room temperature for 40 min; • i) 4× Sa-XL 665 was prepared in an HTRF detection buffer; • j) 5 μl of the Sa-XL 665 and 5 μl of a TK-antibody-cryptate were added to each well of the assay plate; • k) the assay plate was centrifuged at 1,000 g for 30 s and incubated at room temperature for 1 h; and • l) fluorescence signals at 615 nm (cryptate) and 665 nm (XL665) were read on an Envision 2104 reader. • 3. Data analysis • 3.1 Calculation of ratio (665/615 nm) of each well • 3.2 Calculation of inhibition rate
(§1) [formula] • 3.3 Calculation of IC50 value of compound and drawing dose-effect curve of compound • IC50 values were calculated using GraphPad 6.0 by applying a non-linear regression curve (dose-effect relationship-variable slope) of the logarithm of the compound concentration versus the inhibition rate.
The preparation of the kinase buffer, the test method of the activity of the compound, and the data analysis referred to the relevant definitions in example 117, wherein step c) of the test method of the activity of the compound was replaced by preparing 2×EGFR Del19 T790M C797S in the 1× kinase buffer.

[4] = system: KC-1474:PC-9 EGFR-Del19/T790M/C797S; assay: Cell proliferation inhibition experiment (CCK-8), KC-1474; format: cell-based; settings: Homo sapiens, 72 h
From the text: (§2) Inhibition rate %=[(A0−AS)/(A0−AC)]×100%.

[5] = system: KC-0178:NCI-1975 EGFR-L858R/T790M/C797S; assay: Cell proliferation inhibition experiment (CCK-8), KC-0178; format: cell-based; settings: Homo sapiens, 72 h
From the text: as §2

HCC827 EGFR-Del19 = assay: Cell proliferation inhibition experiment (CCK-8), HCC827; format: cell-based; settings: Homo sapiens, 72 h
From the text: as §2

PC-9 EGFR-Del19 = assay: Cell proliferation inhibition experiment (CCK-8), PC-9; format: cell-based; settings: Homo sapiens, 72 h
From the text: as §2

H1975 EGFR-L858R/T790M = assay: Cell proliferation inhibition experiment (CCK-8), H1975; format: cell-based; settings: Homo sapiens, NCI-H1975, 72 h
From the text: as §2

A549 EGFR-WT = assay: Cell proliferation inhibition experiment (CCK-8), A549; settings: Homo sapiens, A549, 72 h, read-out: cell proliferation inhibition IC50 (μM) A549, 72 h, CCK-8
[6] = molecular target: EGFR (D770-N771 ins NPG T790M) kinase (Homo sapiens (Human), UniProt P00533, INS770NPG/T790M); assay: In-vitro enzyme experiment 1 (HTRF kinase assay), EGFR D770-N771 ins NPG T790M; format: biochemical
Sequence of EGFR (D770-N771 ins NPG T790M) kinase (P00533 other isoform, or with tags, fused parts or gaps T790M/del 1-668/ins NPG behind 770 limits assumed): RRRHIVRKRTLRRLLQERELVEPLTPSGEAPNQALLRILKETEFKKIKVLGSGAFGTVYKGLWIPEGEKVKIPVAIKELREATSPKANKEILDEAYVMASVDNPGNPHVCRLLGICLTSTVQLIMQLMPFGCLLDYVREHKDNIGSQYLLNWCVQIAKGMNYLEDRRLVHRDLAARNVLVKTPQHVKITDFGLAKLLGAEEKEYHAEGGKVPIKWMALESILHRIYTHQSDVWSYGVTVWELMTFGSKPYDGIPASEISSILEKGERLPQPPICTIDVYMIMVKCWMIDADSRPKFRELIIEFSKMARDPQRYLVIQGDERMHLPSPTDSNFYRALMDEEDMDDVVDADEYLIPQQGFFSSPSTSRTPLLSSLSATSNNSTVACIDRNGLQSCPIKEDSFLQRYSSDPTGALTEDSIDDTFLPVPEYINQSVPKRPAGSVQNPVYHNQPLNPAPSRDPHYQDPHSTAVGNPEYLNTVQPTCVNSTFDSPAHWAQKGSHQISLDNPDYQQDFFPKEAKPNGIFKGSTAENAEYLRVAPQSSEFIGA
Method: The specific experiment was as follows: • 1. Preparation of 1× concentration kinase buffer • 1 volume of 5 times concentration of an enzyme buffer diluted with 4 volumes of distilled water; 5 mM magnesium chloride; 1 mM DTT; and 1 mM MnCl2. • 2. Test method of activity of compound • a) a compound diluent was transferred to each well of an assay plate (784075, Greiner) using Echo 550; • b) the assay plate was sealed and centrifuged at 1,000 g for 1 min; • c) 2×EGFR (D770-N771 ins NPG T790M) was prepared in a 1× kinase buffer; • d) 5 μl of the 2×EGFR (D770-N771 ins NPG T790M) was added to a 384-well assay plate (784075, Greiner); • e) the assay plate was centrifuged at 1,000 g for 30 s and incubated at room temperature for 10 min; • f) 2× TK-substrate-biotin (2 μM) and ATP were added to the 1× kinase buffer and mixed; • g) the reaction was started after adding 5 μl of the TK-substrate-biotin (2 μM) and ATP mixture; • h) the assay plate was centrifuged at 1,000 g for 30 s; and the assay plate was sealed and incubated at room temperature for 40 min; • i) 4× Sa-XL 665 was prepared in an HTRF detection buffer; • j) 5 μl of the Sa-XL 665 and 5 μl of a TK-antibody-cryptate were added to each well of the assay plate; • k) the assay plate was centrifuged at 1,000 g for 30 s and incubated at room temperature for 1 h; and • l) fluorescence signals at 615 nm (cryptate) and 665 nm (XL665) were read on an Envision 2104 reader. • 3. Data analysis • 3.1 Calculation of ratio (665/615 nm) of each well • 3.2 Calculation of inhibition rate
as §1
Y=lowest value+(highest value−lowest value)/(1+10^((Log IC50−X)×slope)) • X: logarithm of inhibitor concentration; and Y: inhibition rate. • 3.4 Double test report • 3.4.1 After one tester completed a report, another tester again checked the report to ensure that data analysis was correct. • 3.4.2 The data was exported from the software and manually analyzed. • 3.4.2.1 The rate was converted into the inhibition rate. All the IC50 values were first calculated with the inhibition rate using Prism GraphPad 6.0. • 3.4.2.2 Then the IC50 value was recalculated using the ratio to check the accuracy of the analysis. • 3.4.3 The number of all the compounds was ensured to be correct.

Sequence of EGFR D770-N771 ins NPG kinase (P00533 other isoform, or with tags, fused parts or gaps del 1-668/ins NPG behind 770 limits assumed): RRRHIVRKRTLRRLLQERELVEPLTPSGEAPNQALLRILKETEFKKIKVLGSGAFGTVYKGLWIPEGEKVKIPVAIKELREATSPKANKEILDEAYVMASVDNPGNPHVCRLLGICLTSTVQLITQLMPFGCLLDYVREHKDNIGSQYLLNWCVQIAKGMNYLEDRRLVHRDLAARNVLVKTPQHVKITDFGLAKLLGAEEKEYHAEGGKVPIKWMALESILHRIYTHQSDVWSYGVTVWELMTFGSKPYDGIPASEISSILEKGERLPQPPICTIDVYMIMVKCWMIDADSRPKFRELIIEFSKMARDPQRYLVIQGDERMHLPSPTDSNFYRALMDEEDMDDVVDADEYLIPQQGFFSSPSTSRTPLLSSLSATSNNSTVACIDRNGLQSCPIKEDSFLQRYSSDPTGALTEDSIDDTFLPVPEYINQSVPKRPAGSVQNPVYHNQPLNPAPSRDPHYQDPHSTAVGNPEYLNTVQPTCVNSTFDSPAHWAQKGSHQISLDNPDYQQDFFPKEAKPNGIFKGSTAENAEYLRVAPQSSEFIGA

Structure (SMILES)	IC50 [1] [nM]	IC50 [2] [nM]	IC50 [3] [nM]	IC50 [4] [µM]	IC50 (HCC827 EGFR-Del19) [µM]	IC50 (PC-9 EGFR-Del19) [µM]	IC50 (H1975 EGFR-L858R/T790M) [µM]	IC50 (A549 EGFR-WT) [µM]	IC50 [6] [nM]	IC50 (A549 EGFR-WT; Table 5 numeric) [µM]	IC50 [5] [µM]
CN1CCN(c2ccc(Nc3nc(NC4CC5(COC5)C4)c4c(C(=O)c5ccc(F)cc5)c[nH]c4n3)cc2)CC1 [Example 18]	28.2	150	10 to 100								
CN1CCN(c2ccc(Nc3nc(N[C@H]4CC[C@H](CO)CC4)c4c(C(=O)c5ccc(F)cc5)c[nH]c4n3)cc2)CC1 [Example 42]	4.44	35		< 0.1	0.1 to 1	< 0.1	0.1 to 1	1 to 2			1 to 2
CN1CCN(c2ccc(Nc3nc(NC45CC6CC(CC(O)(C6)C4)C5)c4c(C(=O)c5ccc(F)cc5)c[nH]c4n3)cc2)CC1 [Example 70]	6.55	54	10 to 100								
CN1CCN(c2ccc(Nc3nc(NC45CC6CC(C4)C(O)C(C6)C5)c4c(C(=O)c5ccc(F)cc5)c[nH]c4n3)cc2)CC1 (centres unmarked) [Example 71]	4.54	70	10 to 100						9.27		
CN1CCN(c2ccc(Nc3nc(NC4CCN(S(C)(=O)=O)CC4)c4c(C(=O)c5ccc(F)cc5)c[nH]c4n3)cc2)CC1 [Example 64]	24.2	200	100 to 600						93.6		
CN1CCN(c2ccc(Nc3nc(NC4CCCCC4O)c4c(C(=O)c5ccc(F)cc5)c[nH]c4n3)cc2)CC1 (centres unmarked) [Example 43]			100 to 600		0.1 to 1	0.1 to 1	0.1 to 1				
C=CC(=O)N1CC[C@@H](Nc2nc(Nc3ccc(N4CCN(C)CC4)cc3)nc3[nH]cc(C(=O)c4ccc(F)cc4)c23)C1 [Example 26]	3.52	150							6.31	0.52	
CN1CCN(c2ccc(Nc3nc(NC4CCOCC4)c4c(C(=O)c5ccc(F)cc5)c[nH]c4n3)cc2)CC1 [Example 40]				< 0.1	0.1 to 1	0.1 to 1		0.1 to 1		0.23	
C=CC(=O)N1CC[C@H](Nc2nc(Nc3ccc(N4CCN(C)CC4)cc3)nc3[nH]cc(C(=O)c4ccccc4F)c23)C1 [Example 46]					0.1 to 1	< 0.1	< 0.1				

Second part, led by results:

IC50 [1] [nM]	IC50 [2] [nM]	IC50 [3] [nM]	IC50 [4] [µM]	IC50 (HCC827 EGFR-Del19) [µM]	IC50 (PC-9 EGFR-Del19) [µM]	IC50 (H1975 EGFR-L858R/T790M) [µM]	IC50 (A549 EGFR-WT) [µM]	IC50 [6] [nM]	IC50 (A549 EGFR-WT; Table 5 numeric) [µM]	Structure (SMILES)	IC50 [5] [µM]
		10 to 100	0.1 to 1	< 0.1	< 0.1		0.1 to 1			Cn1cc(Nc2nc(N[C@H]3CC[C@H](CO)CC3)c3c(C(=O)c4ccc(F)cc4)c[nH]c3n2)cn1 [Example 110]	< 0.1
2.72	160	< 10	< 0.1		< 0.1	< 0.1		11.4		CCN1CCN(c2ccc(Nc3nc(N[C@H]4CC[C@@H](CO)CC4)c4c(C(=O)c5ccc(F)cc5)c[nH]c4n3)cc2)CC1 [Example 104]	0.1 to 1
2.46	560	< 10	0.1 to 1		0.1 to 1	0.1 to 1	1 to 2	8.16		CN1CCC(n2cc(Nc3nc(N[C@H]4CC[C@@H](CO)CC4)c4c(C(=O)c5ccc(F)cc5)c[nH]c4n3)cn2)CC1 [Example 115]	1 to 2
				< 0.1	0.1 to 1	< 0.1			0.07	O=C(c1cccc(F)c1)c1c[nH]c2nc(Nc3ccc(N4CCOCC4)cc3)nc(N[C@H]3CC[C@H](CO)CC3)c12 [Example 92]	
3	120			0.1 to 1	< 0.1	0.1 to 1	0.1 to 1	7.27		C=CC(=O)N1CC[C@@H](Nc2nc(Nc3cnn(C)c3)nc3[nH]cc(C(=O)c4ccc(F)cc4)c23)C1 [Example 109]	
4.12	160	< 10	< 0.1		< 0.1	< 0.1	0.1 to 1	18.2		Cn1cc(Nc2nc(N[C@H]3CC[C@@H](CO)CC3)c3c(C(=O)c4ccc(F)cc4)c[nH]c3n2)cn1 [Example 114]	0.1 to 1
		10 to 100	0.1 to 1		< 0.1	0.1 to 1	1 to 2			COc1nn(C)cc1Nc1nc(N[C@H]2CC[C@@H](CO)CC2)c2c(C(=O)c3ccc(F)cc3)c[nH]c2n1 [Example 116]	1 to 2
				< 0.1	0.1 to 1	0.1 to 1	0.1 to 1			O=C(c1ccc(F)cc1)c1c[nH]c2nc(Nc3ccc(N4CCOCC4)cc3)nc(N[C@H]3CC[C@H](CO)CC3)c12 [Example 79]	< 0.1
